Measurements published in patent publication US11028086B2, “Pyrido-imidazo rifamycins” (Biofer S.p.A., priority 2017, dated 2021).
≈ marks a conversion by molar mass, not a printed value.

Experiments:
Type in all cases: cell-based
[1] = system: Staphylococcus aureus IM149; assay: MIC by serial dilution, Strain A; conditions: for MIC: range between last concentration with growth and first without growth
Description: (§1) The MICs were calculated using the serial dilution method, and are expressed as the range between the last concentration at which the bacterial strain grows and the first concentration at which the strain tested no longer grows.

[2] = system: Escherichia Coli ATCC 25922; assay: MIC by serial dilution, Strain C; conditions: ATCC25922, range between last concentration with growth and first without growth
Description: as §1

[3] = system: Bacillus Subtilis ATCC 6633; assay: MIC by serial dilution, Strain B; conditions: ATCC6633, range between last concentration with growth and first without growth
Description: as §1

Escherichia Coli NK12 = assay: MIC by serial dilution, Strain D; conditions: COLINK12, range between last concentration with growth and first without growth
Description: as §1

[4] = system: Gram-positive and Gram-negative strains; assay: Antibacterial activity, overall statements on the MIC test
Description: as §1

Structure (SMILES)	MIC [1] [µg/mL]	MIC [2] [µg/mL]	MIC [3] [µg/mL]	MIC (Escherichia Coli NK12) [µg/mL]	MIC against strain A compared with RFX [1]	antibacterial activity (in words) [4]
CO[C@H]1/C=C/O[C@@]2(C)Oc3c(C)c(O)c4c(O)c(c5c(nc6cc(/C=N/N7CCOCC7)ccn65)c4c3C2=O)NC(=O)/C(C)=C\C=C\[C@H](C)[C@H](O)[C@@H](C)[C@@H](O)[C@@H](C)[C@H](OC(C)=O)[C@@H]1C [Example 15]	< 0.015	8 to 16 (≈ 9.05 to 18.1 µM)	8 to 16 (≈ 9.05 to 18.1 µM)	4 to 8 (≈ 4.52 to 9.05 µM)	lower than RFX	fully comparable to that of RFX
CO/N=C/c1ccn2c(c1)nc1c3c4c5c(C)c(O)c3c(O)c(c12)NC(=O)/C(C)=C\C=C\[C@H](C)[C@H](O)[C@@H](C)[C@@H](O)[C@@H](C)[C@H](OC(C)=O)[C@H](C)[C@@H](OC)/C=C/O[C@@](C)(O5)C4=O [Example 13, 4′-(N-methoxy)-iminomethyl-4-desoxypyrido[1′,2′-1,2]imidazo[5,4-c]rifamycin SV]	< 0.015	8 to 16 (≈ 9.65 to 19.3 µM)	< 0.015	8 to 16 (≈ 9.65 to 19.3 µM)	lower than RFX	fully comparable to that of RFX
CO[C@H]1/C=C/O[C@@]2(C)Oc3c(C)c(O)c4c(O)c(c5c(nc6cc(/C=N/N(C)C)ccn65)c4c3C2=O)NC(=O)/C(C)=C\C=C\[C@H](C)[C@H](O)[C@@H](C)[C@@H](O)[C@@H](C)[C@H](OC(C)=O)[C@@H]1C [Example 5, 4′-[(N,N-dimethylamino)iminomethyl]-4-desoxypyrido[1′,2′-1,2]imidazo[5,4-c]rifamycin SV]	0.03 to 0.06 (≈ 0.0356 to 0.0713 µM)	32 to 64 (≈ 38 to 76 µM)	0.062 to 0.125 (≈ 0.0736 to 0.148 µM)	32 to 64 (≈ 38 to 76 µM)		
CO[C@H]1/C=C/O[C@@]2(C)Oc3c(C)c(O)c4c(O)c(c5c(nc6cc(/C=N/C(C)C)ccn65)c4c3C2=O)NC(=O)/C(C)=C\C=C\[C@H](C)[C@H](O)[C@@H](C)[C@@H](O)[C@@H](C)[C@H](OC(C)=O)[C@@H]1C [Example 14]	0.03 to 0.06 (≈ 0.0357 to 0.0713 µM)	8 to 16 (≈ 9.51 to 19 µM)	8 to 16 (≈ 9.51 to 19 µM)	8 to 16 (≈ 9.51 to 19 µM)	lower than RFX	fully comparable to that of RFX
CO[C@H]1/C=C/O[C@@]2(C)Oc3c(C)c(O)c4c(O)c(c5c(nc6cc(/C=N/NC(=O)c7ccncc7)ccn65)c4c3C2=O)NC(=O)/C(C)=C\C=C\[C@H](C)[C@H](O)[C@@H](C)[C@@H](O)[C@@H](C)[C@H](OC(C)=O)[C@@H]1C [Example 6, 4′-[(4-carboxyamidopyridyl)iminomethyl]-4-desoxypyrido[1′,2′-1,2]imidazo[5,4-c]rifamycin SV]	> 64	> 64	8 to 16 (≈ 8.71 to 17.4 µM)	32 to 64 (≈ 34.8 to 69.6 µM)		
CO[C@H]1/C=C/O[C@@]2(C)Oc3c(C)c(O)c4c(O)c(c5c(nc6cc(CO)ccn65)c4c3C2=O)NC(=O)/C(C)=C\C=C\[C@H](C)[C@H](O)[C@@H](C)[C@@H](O)[C@@H](C)[C@H](OC(C)=O)[C@@H]1C [Example 1, 4′-methylol-4-desoxypyrido[1′,2′-1,2]imidazo[5,4-c]rifamycin SV]	8 to 16 (≈ 9.98 to 20 µM)	8 to 16 (≈ 9.98 to 20 µM)	2 to 4 (≈ 2.49 to 4.99 µM)	4 to 8 (≈ 4.99 to 9.98 µM)		
CO[C@H]1/C=C/O[C@@]2(C)Oc3c(C)c(O)c4c(O)c(c5c(nc6ccc(/C=N/N(C)C)cn65)c4c3C2=O)NC(=O)/C(C)=C\C=C\[C@H](C)[C@H](O)[C@@H](C)[C@@H](O)[C@@H](C)[C@H](O)[C@@H]1C [Example 12, 25-desacetyl-5′-[(N,N-dimethylamino)iminomethyl]-4-desoxypyrido[1′,2′-1,2]imidazo[5,4-c]rifamycin SV]	8 to 16 (≈ 10 to 20 µM)	> 64	4 to 8 (≈ 5 to 10 µM)	> 64		

Continued, in another order:

MIC [1] [µg/mL]	MIC [2] [µg/mL]	MIC [3] [µg/mL]	MIC (Escherichia Coli NK12) [µg/mL]	Structure (SMILES)	MIC against strain A compared with RFX [1]	antibacterial activity (in words) [4]
> 64	> 64	> 64	> 64	CO[C@H]1/C=C/O[C@@]2(C)Oc3c(C)c(O)c4c(O)c(c5c(nc6cc(C=O)ccn65)c4c3C2=O)NC(=O)/C(C)=C\C=C\[C@H](C)[C@H](O)[C@@H](C)[C@@H](O)[C@@H](C)[C@H](OC(C)=O)[C@@H]1C [Example 2, 4′-formyl-4-desoxypyrido[1′,2′-1,2]imidazo[5,4-c]rifamycin SV]		
8 to 16 (≈ 9.52 to 19 µM)	32 to 64 (≈ 38.1 to 76.2 µM)	4 to 8 (≈ 4.76 to 9.52 µM)	32 to 64 (≈ 38.1 to 76.2 µM)	CO[C@H]1/C=C/O[C@@]2(C)Oc3c(C)c(O)c4c(O)c(c5c(nc6ccc(/C=N/N7CCCCC7)cn65)c4c3C2=O)NC(=O)/C(C)=C\C=C\[C@H](C)[C@H](O)[C@@H](C)[C@@H](O)[C@@H](C)[C@H](O)[C@@H]1C [Example 11, 25-desacetyl-5′-[(1-piperidinyl)iminomethyl]-4-desoxypyrido[1′,2′-1,2]imidazo[5,4-c]rifamycin SV]		
0.03 to 0.06 (≈ 0.0356 to 0.0713 µM)	32 to 64 (≈ 38 to 76 µM)	0.062 to 0.125 (≈ 0.0736 to 0.148 µM)	32 to 64 (≈ 38 to 76 µM)	CO[C@H]1/C=C/O[C@@]2(C)Oc3c(C)c(O)c4c(O)c(c5c(nc6ccc(/C=N/N(C)C)cn65)c4c3C2=O)NC(=O)/C(C)=C\C=C\[C@H](C)[C@H](O)[C@@H](C)[C@@H](O)[C@@H](C)[C@H](OC(C)=O)[C@@H]1C [Example 7, 5′-[(N,N-dimethylamino)iminomethyl]-4-desoxypyrido[1′,2′-1,2]imidazo[5,4-c]rifamycin SV]		
0.03 to 0.06 (≈ 0.034 to 0.068 µM)	4 to 8 (≈ 4.54 to 9.07 µM)	0.062 to 0.125 (≈ 0.0703 to 0.142 µM)	8 to 16 (≈ 9.07 to 18.1 µM)	CO[C@H]1/C=C/O[C@@]2(C)Oc3c(C)c(O)c4c(O)c(c5c(nc6cc(/C=N/N7CCCCC7)ccn65)c4c3C2=O)NC(=O)/C(C)=C\C=C\[C@H](C)[C@H](O)[C@@H](C)[C@@H](O)[C@@H](C)[C@H](OC(C)=O)[C@@H]1C [Example 4, 4′-[(1-piperidinyl)iminomethyl]-4-desoxypyrido[1′,2′-1,2]imidazo[5,4-c]rifamycin SV]		
0.03 to 0.06 (≈ 0.034 to 0.068 µM)	4 to 8 (≈ 4.54 to 9.07 µM)	0.062 to 0.125 (≈ 0.0703 to 0.142 µM)	8 to 16 (≈ 9.07 to 18.1 µM)	CO[C@H]1/C=C/O[C@@]2(C)Oc3c(C)c(O)c4c(O)c(c5c(nc6ccc(/C=N/N7CCCCC7)cn65)c4c3C2=O)NC(=O)/C(C)=C\C=C\[C@H](C)[C@H](O)[C@@H](C)[C@@H](O)[C@@H](C)[C@H](OC(C)=O)[C@@H]1C [Example 8, 5′-[(1-piperidinyl)iminomethyl]-4-desoxypyrido[1′,2′-1,2]imidazo[5,4-c]rifamycin SV]		
